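Test compounds were applied to cells in 96-well plates for 48 hours at 5 doses. TGI: concentration producing complete growth inhibition.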
Legend:
Experiment in all cases: NCI anticancer screen, dose series, 48 h
786-0 renal = system: 786-0 renal
ACHN renal = system: ACHN renal
DU-145 prostate = system: DU-145 prostate
HCT-116 colon = system: HCT-116 colon
HOP-92 NSCLC = system: HOP-92 NSCLC
LOX IMVI melanoma = system: LOX IMVI melanoma
NCI/ADR-RES ovarian = system: NCI/ADR-RES ovarian
OVCAR-3 ovarian = system: OVCAR-3 ovarian
RPMI-8226 leukemia = system: RPMI-8226 leukemia
TK-10 renal = system: TK-10 renal

Row | SMILES | TGI (786-0 renal) | TGI (ACHN renal) | TGI (DU-145 prostate) | TGI (HCT-116 colon) | TGI (HOP-92 NSCLC) | TGI (LOX IMVI melanoma) | TGI (NCI/ADR-RES ovarian) | TGI (OVCAR-3 ovarian) | TGI (RPMI-8226 leukemia) | TGI (TK-10 renal)
1 | Cc1cc(S(=O)(=O)/N=C(/NN)Nc2ccc(Cl)cc2)c(S)cc1Cl | 45.6 µM | 20 µM | 17.2 µM | 20 µM | 67.9 µM | 30.5 µM | 23.4 µM | 82.2 µM | > 100 µM | 65.3 µM
2 | C#CCOC(=O)c1ccc(OC(C)=O)cc1 | > 100 µM | > 100 µM | > 100 µM | > 100 µM | > 100 µM | > 100 µM | > 100 µM | > 100 µM | > 100 µM | > 100 µM
3 | Cc1c([C@H](C)[C@@H]2NC[C@@H](C)C[C@H]2O)ccc2c1C[C@H]1[C@H]2CC=C2C[C@@H](O)CC[C@@]21C | 37.9 µM | 37.6 µM | > 100 µM | 30.6 µM | 23.3 µM | 27 µM | > 100 µM | 41.5 µM | 17.9 µM | 67.3 µM
4 | CC(C)=CCC[C@@H](C)C1=C(O)C(Nc2ccccc2I)=C(C)C(=O)C1=O | > 58.7 µM | 44 µM | 69.2 µM | 34.8 µM | 50.2 µM | > 75 µM | > 17.6 µM | > 47.5 µM | > 36.8 µM | > 75 µM
5 | COC1=CC(=O)N(C)C(O)C1(C#N)OC1OC(CO)C(O)C(O)C1O (stereo not given) | > 100 µM | > 100 µM | > 100 µM | > 100 µM | > 100 µM | > 100 µM | > 100 µM | > 100 µM | > 100 µM | > 100 µM
6 | CC1(C)C=C(/C=N/Nc2ccccc2)C(C#N)=C(O)C1(C#N)C#N | > 100 µM | > 100 µM | > 100 µM | > 100 µM | 99.6 µM | > 100 µM | > 100 µM | > 100 µM | > 100 µM | > 100 µM
7 | CCOC1=C(c2ccccc2)N2CCCCC2O1 (stereo not given) | > 100 µM | > 100 µM | > 86.8 µM | 15.2 µM | 6 µM | 13.8 µM | > 96.4 µM | > 44.5 µM | > 24 µM | > 38.6 µM
8 | CCSC1=CC2(O)N(CCc3ccc(OC)c(OC)c3)C(=O)CC2(C(=O)OC)CC1=O (stereo not given) | 34 µM | > 100 µM | 32.6 µM | 32.1 µM | 29.7 µM | 37.3 µM | > 100 µM | 33.6 µM | 91.3 µM | 37.5 µM
9 | COc1cc2nc(-c3cccs3)nc(Nc3cccc(Cl)c3)c2cc1OC | > 100 µM | > 100 µM | > 100 µM | > 100 µM | > 100 µM | > 100 µM | > 100 µM | > 100 µM | > 100 µM | 25.3 µM
10 | O=C1NC(N2CCOCC2)=N/C1=C\c1ccc(O)cc1 | > 100 µM | > 100 µM | > 100 µM | > 100 µM | > 100 µM | > 100 µM | > 100 µM | > 100 µM | > 100 µM | > 100 µM
11 | O=C1/C(=C/c2cccc3ccccc23)CCc2ccc([N+](=O)[O-])cc21 | 65.5 µM | > 100 µM | > 100 µM | 71 µM | 74.4 µM | > 100 µM | > 100 µM | 12.7 µM | > 100 µM | > 100 µM
12 | OC(NN=C1CCCC1)(C(F)(F)Cl)C(F)(F)Cl | > 10 µM | > 10 µM | > 10 µM | > 10 µM | > 10 µM | > 10 µM | > 10 µM | > 10 µM | > 10 µM | > 10 µM
13 | CC1CCC2(OC1)OC1C(O)C3C4CCC5CC(OC6OC(CO)C(OC7OC(CO)C(O)C(OC8OCC(O)C(O)C8O)C7OC7OC(CO)C(O)C(OC8OC(CO)C(O)C(O)C8O)C7O)C(O)C6O)C(O)CC5(C)C4CCC3(C)C1C2C (stereo not given) | 2.96 µM | 3.08 µM | 4.63 µM | 3.36 µM | 26.5 µM | 12.1 µM | 13.6 µM | 3.32 µM | 9.28 µM | 6.1 µM
14 | Cc1nc(Nc2ccccc2Cl)sc1C(=O)CC(=O)C(N)=O | > 100 µM | > 100 µM | > 100 µM | > 100 µM | > 100 µM | > 100 µM | > 100 µM | > 100 µM | > 100 µM | > 100 µM
15 | O=C(O)c1ccccc1C1c2ccccc2Oc2ccccc21 | > 100 µM | > 100 µM | > 100 µM | > 100 µM | 77.5 µM | > 100 µM | > 100 µM | 90.1 µM | > 100 µM | > 100 µM

From PubChem BioAssay (NCI)
